Source: US12421499B2, “Method of differentiation of human pluripotent stem cells to monohormonal cells” (Cornell University, priority 2018, dated 2025)

Key:
[1] = system: GLIS3−/− PP2-β cells; assay: Cell death rate (PI+ INS+ cells in INS+ cells), propidium iodide staining; assay type: cell-based, human; conditions: for cell death rate: INS-GFP+ GLIS3−/− PP2-β cells
Experimental: Propium iodide cell viability staining. Cells at D30_L were dissociated using Accutase and replated onto 96-well plates coated with 804-G conditioned medium. Once attached, cells were stained by 2.5 μg mL^−1 propium iodide in DMEM for 12 min, washed once with DMEM and fixed with 4% paraformaldehyde for 20 min. DAPI was used to quantify total number of cells after fixation. Plates were analyzed using a Molecular Devices ImageXpress High-Content Analysis System. Data was quantified using MetaXpress software.

[2] = system: GLIS3−/− PP2-β cells; assay: Cell apoptosis rate (cleaved caspase-3+ INS+ cells in INS+ cells) and INS+ cell number, high content imaging; assay type: cell-based, human; conditions: for cell apoptosis rate: INS-GFP+ GLIS3−/− PP2-β cells
Experimental: Immunofluorescence staining. Cells were fixed in 4% paraformaldehyde solution (Affymetrix) for 20 min, then blocked and permeabilized in PBS solution containing 5% horse serum and 0.3% Triton for 1 hr at room temperature. The cells were incubated with primary antibodies overnight at 4 C followed by 1 hr incubation with fluorescence-conjugated secondary antibodies (Alexafluor, ThermoFisher Scientific) at RT. For pSMAD2/3 staining, cells were permeabilized with ice-cold methanol at ˜20 C for 10 min after fixation and prior to blocking. The following primary antibodies were used: anti-OCT4 (1:200, Santa Cruz), anti-SOX17 (1:500, R&D), anti-PDX1 (1:500, R&D), anti-SOX9 (1:1000, Millipore), anti-NKX6.1 (1:500, DSHB), anti-NKX2.2 (1:500, DSHB), anti-PAX6 (1:1000, Covance), anti-ISL1 (1:200, DSHB), anti-UCN3 (1:500, Phoenix Pharmaceuticals), anti-NGN3 (1:500, R&D), anti-chromogranin A (1:1000, Immunostar), anti-glucagon (1:2000, Sigma) anti-somatostatin (1:1000, DAKO), anti-ghrelin (1:500, Santa Cruz), anti-insulin (1:500, DAKO) and anti-cleaved caspase-3 (1:1000, BD Biosciences), anti-pSMAD2/3 (1:200, Cell Signaling).
High throughput chemical screening. To perform the high throughput small molecule screening, GLIS3^−/− cells at D26_L were dissociated using Accutase and replated onto 804G-coated 384-well plates at 20,000 cells/80 μl medium/well. After 8 hr, cells were treated at 1 μM and 10 μM with compounds from an in-house library of 300 signaling pathway modulators, an epigenetics library (Cayman Chemical), Prestwick library of approved drugs (FDA, EMA and other agencies), LOPAC (Sigma Aldrich) and the MicroSource library totaling 5000 chemicals. DMSO treatment was used as a negative control. Untreated wells containing WT cells were included as positive control. After 4 days of culture, cells were first stained with 2.5 μg/mL PI and then fixed and stained using antibodies against Insulin (DAKO) and cleaved caspase-3 (BD biosciences). Plates were analyzed using a Molecular Devices ImageXpress High-Content Analysis System. Two-dimensional analysis was used. Compounds inducing lower % cleaved caspase-3 (Z-score<−1.5) and a similar or higher number of INS^+ cells compared to DMSO treated wells were selected as primary hits.

[3] = system: SMAD2/3 phosphorylation; assay: Western blot of SMAD2/3 phosphorylation; assay type: cell-based, human; conditions: 10 μM; GLIS3−/− cells at D30_L; vs DMSO
Experimental: Western blot analysis. Whole-cell lysates were generated by scraping cultures on day 24 of differentiation in cold PBS, and re-suspending in complete lysis buffer (20 mM Tris pH 7.0, 150 mM NaCl, 50 mM NaF, 1% NP-40 substitute, and Thermo Scientific HALT protease inhibitor cocktail 1:100). Lysates were loaded onto 10% NuPage Bis-Tris gels (Invitrogen), resolved by electrophoresis, and transferred to PVDF membranes (Bio-Rad). Membranes were blocked with 5% bovine serum albumin in TBS+ 0.05% Tween and probed overnight with primary antibody. The antibodies were rabbit anti-phospho-SMAD2/3 (1:250, Cell Signaling), rabbit anti-SMAD2/3 XP (1:5000, Cell Signaling), and mouse anti-β-actin (1:50000, Sigma A1978). Membranes were washed and incubated for 1 hr with HRP-conjugated secondary antibody (Bio-Rad) in 5% milk-TBS-0.05% Tween and developed using SuperSignal West Pico (Thermo Scientific) or Immobilon (Millipore) ECL substrate.

[4] = system: GLIS3−/− PP2 cells transplanted under the kidney capsule; assay: In vivo transplantation and drug treatment, graft apoptosis by immunohistochemistry; design: species or system SCID-beige mice; conditions: 15 mg/kg/day intraperitoneal for seven days, vs vehicle
Experimental: In vivo transplantation and drug treatment. WT and isogenic mutant hESCs at day 24 of differentiation (around 1 million cells) were harvested by cell scraper, mixed with 20 μl Matrigel (Corning) and transplanted under the kidney capsule of 6-8 weeks old male SCID-beige mice. For drug treatment, mice were injected intraperitoneally with 15 mg/kg/day galunisertib or vehicle for seven days. To prepare the injection cocktail, 200 mM galunisertib in DMSO was diluted ˜15 times with a 50:50 mixture of PEG300 (Sigma Aldrich) and saline (APP Pharmaceuticals). All animal work was conducted in agreement with NIH guidelines and approved by the local Institutional Animal Care and Use Committee (IACUC), the Institutional Biosafety Committee (IBC) as well as the Embryonic Stem Cell Research Committee (ESCRO).
Immunohistochemistry. Mouse kidneys with cells grafted under the capsules were washed with PBS, fixed with 4% paraformaldehyde at 4C overnight and transferred to 30% sucrose solution for dehydration. […] The slides were blocked and permeabilized in PBS solution containing 5% horse serum and 0.3% Triton for 1 hr at RT and then incubated with primary antibodies overnight at 4C followed by 1 hr incubation with fluorescence-conjugated secondary antibodies (Alexafluor, ThermoFisher Scientific) at RT. […] Fluorescent images were scored using MetaMorph® image analysis software (Molecular Devices).

[5] = system: WT INS-GFP+ PP2-β cells; assay: Annexin V apoptosis analysis in wild-type cells; assay type: cell-based, human; conditions: 10 μM
Experimental: Annexin V cellular apoptosis analysis. hESC derived cells were dissociated by Accutase and washed with cold PBS, stained with the PE/Annexin V apoptosis detection Kit (BD Bioscience, 559763) or A647-conjugated annexin V (Thermo Fisher Scientific) according to manufacturer's instructions, the samples were the analyzed by flow cytometry (BD Bioscience, FASC ARIA2) within 30 min. To include a positive control for apoptosis, cells were incubated with 10 μM Camptothecin (Sigma Aldrich) or DMSO for 4 hours prior to Annexin V staining.

[6] = 10 μM, GLIS3−/− cells at D30_L, vs DMSO

| Compound | cell death rate ([1]; 10 μM) | cell apoptosis rate ([2]; 10 μM) | cell death rate ([1]; 1 μM) | cell apoptosis rate ([2]; 1 μM) | other results |
| --- | --- | --- | --- | --- | --- |
| Cc1cccc(-c2nn(C(=S)Nc3ccccc3)cc2-c2ccnc3ccccc23)n1 [A83-01] | significantly decrease | significantly decrease |  |  |  |
| c1ccc(-c2[nH]ncc2-c2ccnc3ccccc23)nc1 [LY-364947] | significantly decrease | significantly decrease |  |  |  |
| NC(=O)c1ccc(-c2nc(-c3ccccn3)c(-c3ccc4c(c3)OCO4)[nH]2)cc1 [SB431642] |  |  | significantly decrease | significantly decrease |  |
| Cc1cccc(-c2[nH]c(C(C)(C)C)nc2-c2ccc3nccnc3c2)n1 [SB525334] |  |  | significantly decrease | significantly decrease |  |
| Cc1cccc(-c2nn3c(c2-c2ccnc4ccc(C(N)=O)cc24)CCC3)n1 [galunisertib] |  |  |  |  | increased SMAD2/3 phosphorylation [3]: inhibits; cell death [1, 6]: significantly reduces; cell apoptosis rate in the transplanted cells (cleaved caspase-3+/STEM121+ cells in STEM121+ cells) ([4]; cells pre-treated with 10 μM for 16 hr): significantly decreases; cell apoptosis rate in INS+ and PDX1+ cells in the grafts [4]: significantly decreases; cell apoptosis of WT INS+ cells [5]: does not affect; number of INS+ cells ([2]; 10 μM, GLIS3−/− PP2-β cells, normalized to DMSO): increases; cell apoptosis [2, 6]: significantly reduces; IC50 ([2]; Homo sapiens, dose-dependent, inhibitory curve FIG. 4c, read-out: IC50, rescue of loss of GLIS3-induced pancreatic β-cell apoptosis): 1140 nM |
